Results taken from ChEMBL document CHEMBL3286137, “Design, synthesis and structure-activity relationships of novel 4-phenoxyquinoline derivatives containing pyridazinone moiety as potential antitumor agents” (Eur J Med Chem, 2014).

Columns and labels:
[1] = target: T1, Amine oxidase [copper-containing] 3 (Homo sapiens, UniProt Q16853); assay: Inhibition of human VAP1
T1 sequence (Q16853 whole entry): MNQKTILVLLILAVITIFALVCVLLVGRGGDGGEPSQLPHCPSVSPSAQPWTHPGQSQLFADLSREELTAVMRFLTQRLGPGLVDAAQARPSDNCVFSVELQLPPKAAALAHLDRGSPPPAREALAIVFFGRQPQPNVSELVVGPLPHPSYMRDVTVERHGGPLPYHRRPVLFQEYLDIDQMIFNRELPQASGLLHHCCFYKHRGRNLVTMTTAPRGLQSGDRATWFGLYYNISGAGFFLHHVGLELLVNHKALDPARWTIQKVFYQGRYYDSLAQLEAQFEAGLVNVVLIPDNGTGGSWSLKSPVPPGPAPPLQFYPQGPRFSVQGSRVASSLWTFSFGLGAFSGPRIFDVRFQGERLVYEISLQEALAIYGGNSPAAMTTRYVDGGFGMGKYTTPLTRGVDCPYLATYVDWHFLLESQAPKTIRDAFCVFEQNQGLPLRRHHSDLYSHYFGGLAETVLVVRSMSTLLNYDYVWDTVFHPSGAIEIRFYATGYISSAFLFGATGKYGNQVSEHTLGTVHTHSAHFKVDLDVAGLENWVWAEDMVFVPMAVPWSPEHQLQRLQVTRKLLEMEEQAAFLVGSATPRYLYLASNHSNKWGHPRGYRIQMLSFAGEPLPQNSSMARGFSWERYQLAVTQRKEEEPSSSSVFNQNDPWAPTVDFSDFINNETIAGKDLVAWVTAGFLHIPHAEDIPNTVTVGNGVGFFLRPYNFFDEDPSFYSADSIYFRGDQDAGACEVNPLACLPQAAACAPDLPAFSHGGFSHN

[2] = Cytotoxicity against human U87MG cells assessed as inhibition of cell growth after 72 hrs by MTT assay; type: functional, cell-based, U-87MG ATCC; settings: U-87 MG
HT-29 [3] = assay: cells; settings: Homo sapiens, HT-29, 72 h
cells [4] = settings: Homo sapiens, NCI-H460, 72 h
A549 = assay: cells; settings: Homo sapiens, A549, 72 h
cells [5] = settings: Homo sapiens, MKN-45, 72 h
[6] = target: Hepatocyte growth factor receptor (Homo sapiens, UniProt P08581); assay: Inhibition of c-Met (unknown origin) using poly (Glu,Tyr)4:1 as substrate by homogeneous time-resolved fluorescence assay
[7] = target: Mast/stem cell growth factor receptor Kit (Homo sapiens, UniProt P10721); assay: Inhibition of c-Kit (unknown origin)
[8] = target: T2, Receptor-type tyrosine-protein kinase FLT3 (Homo sapiens, UniProt P36888); assay: Inhibition of Flt3 (unknown origin)
T2 sequence (P36888 whole entry): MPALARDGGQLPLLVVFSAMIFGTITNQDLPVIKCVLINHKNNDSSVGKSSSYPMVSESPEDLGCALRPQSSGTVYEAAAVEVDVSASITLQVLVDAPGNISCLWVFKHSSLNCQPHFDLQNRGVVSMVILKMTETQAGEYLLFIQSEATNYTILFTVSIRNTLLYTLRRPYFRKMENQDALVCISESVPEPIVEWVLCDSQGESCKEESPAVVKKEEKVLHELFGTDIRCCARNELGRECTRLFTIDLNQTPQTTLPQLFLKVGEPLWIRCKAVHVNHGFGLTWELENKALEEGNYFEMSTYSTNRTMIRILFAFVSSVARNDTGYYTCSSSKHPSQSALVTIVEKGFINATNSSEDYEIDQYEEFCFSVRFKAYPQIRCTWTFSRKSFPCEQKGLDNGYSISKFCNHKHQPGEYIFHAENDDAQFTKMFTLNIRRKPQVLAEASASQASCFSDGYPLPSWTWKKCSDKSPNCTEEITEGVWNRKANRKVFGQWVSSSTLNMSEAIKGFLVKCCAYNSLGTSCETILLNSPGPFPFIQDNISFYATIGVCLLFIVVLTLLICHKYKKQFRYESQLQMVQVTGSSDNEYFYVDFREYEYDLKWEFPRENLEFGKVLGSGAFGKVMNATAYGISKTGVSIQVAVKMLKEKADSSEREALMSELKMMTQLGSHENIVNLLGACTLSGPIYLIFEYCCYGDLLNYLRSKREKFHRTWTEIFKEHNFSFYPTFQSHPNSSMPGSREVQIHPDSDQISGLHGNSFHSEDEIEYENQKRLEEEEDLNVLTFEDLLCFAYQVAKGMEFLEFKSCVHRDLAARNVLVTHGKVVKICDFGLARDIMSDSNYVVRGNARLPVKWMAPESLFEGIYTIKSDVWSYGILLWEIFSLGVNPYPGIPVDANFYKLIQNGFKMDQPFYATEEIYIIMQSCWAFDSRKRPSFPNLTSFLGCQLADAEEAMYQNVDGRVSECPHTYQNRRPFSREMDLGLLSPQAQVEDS

[9] = target: Platelet-derived growth factor receptor beta (Homo sapiens, UniProt P09619); assay: Inhibition of PDGFR beta (unknown origin)
[10] = target: Vascular endothelial growth factor receptor 2 (Homo sapiens, UniProt P35968); assay: Inhibition of KDR (unknown origin)
[11] = target: Epidermal growth factor receptor (Homo sapiens, UniProt P00533); assay: Inhibition of EGFR (unknown origin)
HT-29 [12] = assay: Ratio of foretinib IC50 to compound IC50 for human HT-29 cells; type: functional
[13] = Ratio of foretinib IC50 to compound IC50 for human H460 cells; type: functional

| SMILES | IC50 [1] | IC50 [2] | IC50 (HT-29 [3]) | IC50 (cells [4]) | IC50 (A549) | IC50 (cells [5]) | IC50 [6] | IC50 [7] | IC50 [8] | IC50 [9] | IC50 [10] | IC50 [11] | Ratio IC50 (HT-29 [12]) | Ratio IC50 [13] |
| --- | --- | --- | --- | --- | --- | --- | --- | --- | --- | --- | --- | --- | --- | --- |
| O=c1ccc(=O)[nH][nH]1 | 20 nM |  |  |  |  |  |  |  |  |  |  |  |  |  |
| COc1ccc(-n2nc(C(=O)Nc3ccc(Oc4ccnc5cc(OCCCN6CCC(C)CC6)c(OC)cc45)c(F)c3)c(C)cc2=O)cc1 |  | 2840 nM | 5450 nM | 4650 nM | 1100 nM | 400 nM |  |  |  |  |  |  |  |  |
| COc1cc2c(Oc3ccc(NC(=O)c4nn(-c5ccccc5)c(=O)cc4C)cc3F)ccnc2cc1OCCCN1CCN(C)CC1 |  | 2120 nM | 270 nM | 360 nM | 350 nM | 130 nM |  |  |  |  |  |  |  |  |
| COc1cc2c(Oc3ccc(NC(=O)c4nn(-c5ccccc5C)c(=O)cc4C)cc3F)ccnc2cc1OCCCN1CCN(C)CC1 |  | 3720 nM | 3790 nM | 3420 nM | 2830 nM | 1630 nM |  |  |  |  |  |  |  |  |
| COc1cc2c(Oc3ccc(NC(=O)c4nn(-c5cccc(F)c5)c(=O)cc4C)cc3F)ccnc2cc1OCCCN1CCN(C)CC1 |  | 1590 nM | 250 nM | 260 nM | 150 nM | 120 nM |  |  |  |  |  |  |  |  |
| COc1cc2c(Oc3ccc(NC(=O)c4nn(-c5ccc(Cl)cc5)c(=O)cc4C)cc3F)ccnc2cc1OCCCN1CCN(C)CC1 |  | 1560 nM | 320 nM | 440 nM | 270 nM | 40 nM |  |  |  |  |  |  |  |  |
| COc1cc2c(Oc3ccc(NC(=O)c4nn(-c5ccccc5)c(=O)cc4C)cc3F)ccnc2cc1OCCCN1CCCC1 |  | 1100 nM | 220 nM | 460 nM | 370 nM | 120 nM |  |  |  |  |  |  |  |  |
| COc1cc2c(Oc3ccc(NC(=O)c4nn(-c5ccccc5C)c(=O)cc4C)cc3F)ccnc2cc1OCCCN1CCCC1 |  | 2960 nM | 1400 nM | 1590 nM | 1300 nM | 760 nM |  |  |  |  |  |  |  |  |
| COc1cc2c(Oc3ccc(NC(=O)c4nn(-c5ccccc5C(F)(F)F)c(=O)cc4C)cc3F)ccnc2cc1OCCCN1CCCC1 |  | 1010 nM | 140 nM | 210 nM | 130 nM | 100 nM |  |  |  |  |  |  |  |  |
| COc1cc2c(Oc3ccc(NC(=O)c4nn(-c5cccc(F)c5)c(=O)cc4C)cc3F)ccnc2cc1OCCCN1CCCC1 |  | 1700 nM | 250 nM | 280 nM | 170 nM | 120 nM |  |  |  |  |  |  |  |  |
| COc1ccc(-n2nc(C(=O)Nc3ccc(Oc4ccnc5cc(OCCCN6CCCC6)c(OC)cc45)c(F)c3)c(C)cc2=O)cc1 |  | 2960 nM | 3300 nM | 3610 nM | 2770 nM | 1290 nM |  |  |  |  |  |  |  |  |
| COc1cc2c(Oc3ccc(NC(=O)c4nn(-c5ccccc5C)c(=O)cc4C)cc3F)ccnc2cc1OCCCN1CCCCC1 |  | 2500 nM | 2810 nM | 3220 nM | 1920 nM | 1310 nM |  |  |  |  |  |  |  |  |
| COc1cc2c(Oc3ccc(NC(=O)c4nn(-c5cccc(F)c5)c(=O)cc4C)cc3F)ccnc2cc1OCCCN1CCCCC1 |  | 1500 nM | 290 nM | 360 nM | 250 nM | 130 nM |  |  |  |  |  |  |  |  |
| COc1ccc(-n2nc(C(=O)Nc3ccc(Oc4ccnc5cc(OCCCN6CCCCC6)c(OC)cc45)c(F)c3)c(C)cc2=O)cc1 |  | 1800 nM | 3200 nM | 3730 nM | 1500 nM | 330 nM |  |  |  |  |  |  |  |  |
| COc1cc2c(Oc3ccc(NC(=O)c4nn(-c5ccc(Cl)cc5Cl)c(=O)cc4C)cc3F)ccnc2cc1OCCCN1CCCCC1 |  | 1800 nM | 290 nM | 390 nM | 220 nM | 80 nM |  |  |  |  |  |  |  |  |
| COc1cc2c(Oc3ccc(NC(=O)c4nn(-c5ccccc5C)c(=O)cc4C)cc3F)ccnc2cc1OCCCN1CCC(C)CC1 |  | 2240 nM | 2810 nM | 2260 nM | 1460 nM | 1290 nM |  |  |  |  |  |  |  |  |
| COc1cc2c(Oc3ccc(NC(=O)c4nn(-c5ccccc5OC(F)(F)F)c(=O)cc4C)cc3F)ccnc2cc1OCCCN1CCC(C)CC1 |  | 800 nM | 250 nM | 290 nM | 90 nM | 70 nM |  |  |  |  |  |  |  |  |
| COc1cc2c(Oc3ccc(NC(=O)c4nn(-c5cccc(F)c5)c(=O)cc4C)cc3F)ccnc2cc1OCCCN1CCC(C)CC1 |  | 1800 nM | 300 nM | 250 nM | 250 nM | 140 nM |  |  |  |  |  |  |  |  |
| COc1cc2c(Oc3ccc(NC(=O)c4nn(-c5ccccc5)c(=O)cc4C)cc3F)ccnc2cc1OCCCN1CCOCC1 |  | 1600 nM | 350 nM | 450 nM | 720 nM | 110 nM |  |  |  |  |  |  |  |  |
| COc1cc2c(Oc3ccc(NC(=O)c4nn(-c5ccccc5C)c(=O)cc4C)cc3F)ccnc2cc1OCCCN1CCOCC1 |  | 2000 nM | 1010 nM | 1380 nM | 530 nM | 270 nM |  |  |  |  |  |  |  |  |
| COc1cc2c(Oc3ccc(NC(=O)c4nn(-c5ccccc5C(F)(F)F)c(=O)cc4C)cc3F)ccnc2cc1OCCCN1CCOCC1 |  | 1060 nM | 100 nM | 130 nM | 50 nM | 30 nM | 2.15 nM | 4.32 nM | 9.28 nM | 92.3 nM | 425 nM | > 10 µM | 1.9 | 1.5 |
| COc1cc2c(Oc3ccc(NC(=O)c4nn(-c5cccc(F)c5)c(=O)cc4C)cc3F)ccnc2cc1OCCCN1CCOCC1 |  | 1980 nM | 270 nM | 290 nM | 550 nM | 110 nM |  |  |  |  |  |  |  |  |
| COc1cc2c(Oc3ccc(NC(=O)c4nn(-c5ccc(Cl)cc5)c(=O)cc4C)cc3F)ccnc2cc1OCCCN1CCOCC1 |  | 1970 nM | 260 nM | 380 nM | 330 nM | 70 nM |  |  |  |  |  |  |  |  |
